Measurements: a melting point compilation (Tetko et al.; mined from patent text by program, amines drawn as free bases though some values may be those of a salt)

melting point [°C]	SMILES
187 to 191	CC1=CC(c2cccc(Br)c2)C2=C(CCCC2=O)N1 (stereo not drawn)
118 to 120	CCOC(C)n1c(Cl)nc(-c2ccc(OC)cc2)c1-c1ccc(OC)cc1 (stereo not drawn)
102 to 103	CCCCOc1ccc(SCCSc2ccc(OCCCC)cc2)cc1
162 to 164	COc1ccc(C2=NNC(=O)CS2)c(OC)c1
220 to 223	COc1cc(N)c(Cl)cc1C(=O)NCC1CCN(CCS(=O)(=O)Cc2ccccc2)CC1
157 to 158	CCOC(=O)c1c(C)nn(C)c1S(=O)(=O)NC(=S)Nc1nc(C)cc(OC)n1
97 to 102	CC(C)C[C@H](NC(=O)OCc1ccccc1)C(=O)N[C@@H](Cc1ccccc1)C(=O)CS(C)=O (stereo partly drawn)
171 to 173	COc1cc(COc2nn(-c3ccccc3)cc2/C=C/c2nc(N3CCOCC3)sc2C)ccc1OCc1nc(-c2ccc(CC(=O)O)cc2)oc1C
309 to 314	O=c1[nH]c2cc(Cl)ccc2c(=O)cc1NCc1ccccc1
106	CCCCCN1CCC(n2nc(-c3c(-c4ccccc4)nn4ccccc34)ccc2=O)CC1
61 to 70	Cc1cc(Br)cnc1CCCCNc1ncc(Cc2ccc(CO)nc2)c(=O)[nH]1
180 to 188	COC(=O)c1ccc(N(C(=O)c2ccccc2-c2ccccc2)C(=O)c2ccccc2-c2ccccc2)nc1
> 325	O=C(O)c1cn(-c2ccccc2)c2cc(-c3ccncc3)ccc2c1=O
226 to 238	CCOC(=O)c1cnc2c(-c3ccc(Cc4cccc(OC)c4)c(OC)c3)cnn2c1O
139 to 140	CSC(=S)NCCNC(C)=O
108 to 109	CC(C)(C)NC(=O)C1C(C=C(Cl)Cl)C1(C)C (stereo not drawn)
81 to 82	CCCOc1ccc(-c2scc(-c3ccccc3Cl)c2CC(=O)OC)cc1
63 to 64	COC(=O)COc1cc(C)ccc1C=O
148 to 150	OCCOc1nc(N2CCCCC2)c2nc(OCCO)nc(N3CCCCC3)c2n1
246	O=c1cc(-c2nnn[nH]2)oc2cc(COc3cccc(OCc4ccc5ccccc5n4)c3)ccc12
50 to 52	CC(C)(C)C1=CC(=O)C2=C(CCCC2)C1=O
164 to 165	Cc1cn(C2CC(F)C(CO)O2)c(=S)[nH]c1=S (stereo not drawn)
89 to 90	CCCc1coc2c(Cc3ccc(C(C)C)cc3)c(C)cc(C)c12

melting point [°C]	SMILES
> 300	O=S(=O)(c1cc(Cl)ccc1Cl)n1c2cc(O)c(O)cc2c2ccc(O)c(O)c21
24 to 25	CCOC(=O)c1c(C(F)(F)F)nc(C(F)F)c(C(=O)OC)c1Cl
100 to 102	Cc1ccn(-c2ccc(C(=O)N3Cc4ccc(CN(C)C)n4Cc4ccccc43)c(Cl)c2)n1
193 to 194	COc1ccc2c(-c3ccc(Cl)cc3F)noc2c1Cl
194 to 196	Cc1nc(O)c([N+](=O)[O-])c(Cl)n1
89 to 91	COc1ccc2cc(-c3cccnc3)ccc2n1
165 to 166	CS(=O)(=O)Nc1cc2occ(CO)c(=O)c2cc1Oc1ccccc1
52 to 53	CCCc1c(O)c(C(C)=O)cc2c1CCCC2
155 to 157	CC(=O)NC[C@H]1CN(c2ccc(C3CCN(CCF)CC3)c(F)c2)C(=O)O1
134 to 135	CC(C)CCOc1c(-c2ccc(S(C)(=O)=O)cc2)cnn(-c2cccc(Cl)c2)c1=O
45 to 46	CC#CCOc1ccc(S(=O)(=O)NC(Cc2c[nH]c3ccc(C)cc23)C(=O)O)cc1 (stereo not drawn)
83 to 85	O=C(N[C@@H](Cc1ccccc1)C(=O)O)c1cccc(NC(=O)C(CS)Cc2ccccc2)c1 (stereo partly drawn)
98 to 99	CCN(CC)CCNC(=O)N1CCCC(S(=O)(=O)c2ccc(OCCOC)cc2)C1 (stereo not drawn)
184 to 189	CC1c2ccc(F)n2-c2cc(F)c(F)cc2N1S(=O)(=O)c1ccc(O)cc1 (stereo not drawn)
153 to 155	CC(C)CCOc1c(-c2ccc(S(N)(=O)=O)cc2)cnn(C(C)(C)C)c1=O
112	CC(C)C[C@@H](C(=O)N[C@@H](C(C)C)[C@H](O)c1c(-c2ccccc2)c1=O)N(C)C(=O)OCc1ccccc1
300	NC(=O)NN=Cc1c2ccccc2c(C=NNC(N)=O)c2ccccc12
102 to 104	CC1(C)c2cc(OS(C)(=O)=O)ccc2OC1OC(=O)c1ccccc1 (stereo not drawn)
203	Cn1nc(O)ccc1=S
110 to 112	CC(C)C[C@@H](C(=O)O)N(C)Cc1ccc(C(C)(C)C)cc1
103 to 112	CC(C)(CCCCCCCCCCC(C)(C)C(Cl)C(=O)O)C(Cl)C(=O)O (stereo not drawn)
238	CC(=O)Nc1ccc(OC2SCC(O)C(O)C2O)cc1 (stereo not drawn)
172 to 175	Cn1cc(CO)c(=O)c2ccc(C(F)(F)F)cc21

melting point [°C]	SMILES
45 to 45.6	CCC(CC)N(OCc1ccccc1)C(=O)Nc1ccccc1
217 to 218	CC1Oc2ccc(CN3CCC(c4ccc(C(F)(F)F)cc4)CC3)cc2NC1=O (stereo not drawn)
160	O=C1c2ccccc2C(=O)N1C(=O)c1cc(Oc2ccc(C(F)(F)F)cc2Cl)ccc1[N+](=O)[O-]
220 to 222	COC(COC(=O)C1=C(C)NC2=C(C(=O)CN(Cc3ccccc3)C2)C1c1c(F)c(F)c(F)c(F)c1F)c1ccccc1 (stereo not drawn)
170 to 174	CC(C)C(NC(=O)C(Cc1ccccc1)NC(=O)OCc1ccccc1)C(=O)Nc1n[nH]c(=S)s1 (stereo not drawn)
202 to 204	Cc1cccc2ncc(C(=O)Nc3ccc(F)cc3)c(=O)n12
105 to 106	CN(C)C(=S)SC(C[N+](=O)[O-])c1ccccc1 (stereo not drawn)
80 to 82	Cc1ccc(S(=O)(=O)ON=C(CCN2C(=O)c3ccccc3C2=O)n2nc(C(C)(C)C)cc2N)cc1
159 to 161	Cc1cc(Oc2c(Cl)cc(C(F)(F)F)cc2Cl)nn1C(=O)OC(C)(C)C
220 to 223	Cc1cc2cc(CN3CCCC3)cnc2cc1NC(=O)c1ccc(-c2ccc(F)c(F)c2)cc1
87.6 to 89	CC1=C(c2ccccc2F)C(=O)N(C(C)(C)C(O)c2ccc(F)c(C)c2)CO1 (stereo not drawn)
157 to 158	Cc1ccc(-c2ccc3c(c2)C=C(C(=O)Nc2ccc(CNc4ccccc4)cc2)CCO3)cc1
154 to 156	CCn1c(C=Cc2ccccc2)cnc1[N+](=O)[O-]
133 to 134	CCCCOc1cc(C(=O)O)cc([N+](=O)[O-])c1-c1ccccc1
160 to 162	COc1ccc(-c2cc3nc(N(C)C)c4ccccc4c3nn2)cc1
164 to 167	CCOc1ccc(Nc2nc(Nc3ccc4c(c3)OCCO4)ncc2F)cc1
51 to 53	C[C@@H]1O[C@@]1(Cn1cncn1)c1ccc(Cl)cc1
152 to 154	Cn1c(C(F)(F)F)cc(=O)n(-c2cc(OS(=O)(=O)c3ccc(Cl)cc3)c(Cl)cc2F)c1=O
218 to 220	O=C(NC12CC3CC(CC1C3)C2)c1ccncc1C(c1ccc(O)cc1)c1ccc(O)cc1
204 to 205	CC(C)N(c1cccc2cc(C(N)=S)[nH]c12)S(=O)(=O)c1cccs1
102	CCCCCCCOc1ccc(-c2ncc(C#N)cn2)cc1
51 to 52	COc1cccc(C(O)c2cccc(C(F)(F)F)c2)c1 (stereo not drawn)
147 to 151	OC(Cc1ccccn1)(c1ccccc1)c1ccccc1

melting point [°C]	SMILES
140 to 155	Nc1cccc(-c2ccc(OCCN3CC4C(N)C4C3)c3ccccc23)n1 (stereo not drawn)
66	COC(CN(c1nc2ccccc2o1)[C@H]1c2cc(C#N)ccc2OC(C)(C)[C@@H]1O)OC
133 to 135	COC(=O)C1(N(C)C(=O)Cc2c(C)cc(C)cc2C)CCN(OC)CC1
211 to 215	COc1cc2cc(/C=N\O)sc2cc1OC
49 to 50	Fc1ccc(Oc2ncccc2COCc2ccccc2)cc1
211 to 212	CCOCc1nc2c(N)nc3cc(-c4cncc(CO)c4)ccc3c2n1CC(C)C
109 to 111	CCCCNC(=O)CSc1nc(Cl)cc(Cl)n1
179 to 180	O=C(NCCCCCCNC(=O)c1ccc(OC(F)(F)F)cc1)c1ccc(OC(F)(F)F)cc1
217 to 219	CC(O)c1cc(F)ccc1Oc1nc2ccc(NC(=O)Nc3cccc([N+](=O)[O-])c3)cc2cc1Cc1ccccc1 (stereo not drawn)
165 to 169	CCc1ccc(Nc2c(F)c(F)cc(F)c2F)c(CC(=O)O)c1
128 to 131	CSc1cc(C)nc(SC)c1NC(=O)CCCCCCCSc1nc2c(C)c(Cl)cc(C(C)C)c2o1
93 to 95	COC(=O)c1cscc1N=C=S
188 to 189	COc1ccc2c(c1)C1=C[C@@H](C(=O)NC(C)(C)C)CN(C)[C@@H]1CO2 (relative stereo)
70	CCOC(=O)CCC(=O)c1ccc(Cl)cc1OCC(O)CNC(C)(C)C (stereo not drawn)
92 to 95	CC(C)(C)C(=O)Oc1ccc(-c2nnn(CCO)n2)cc1
168 to 171	CC(=O)NCC[C@@H]1CCc2ccc3nn(C)c(Cl)c3c21
127 to 130	CCN(CC)C(=O)OC12Oc3cc(C(C)C)ccc3C1(O)C(=O)c1ccccc12 (stereo not drawn)
112	CC(C)N(C(C)C)S(=O)(=O)N[C@@H](Cc1ccc(Oc2nccc3cnccc23)cc1)C(=O)O
213 to 214	c1ccc(-c2ccc(Nc3nc4ccccc4o3)cc2)cc1
123 to 133	COc1ccc(C(O)Cc2ccncc2)c2c1OC1(CCCCC1)CC2 (stereo not drawn)
271 to 272	CCn1c(=O)c2[nH]c(/C=C/c3cccc(OC)c3)nc2n(CC)c1=O
88 to 90	CCN1C(=O)N(CC2CC2)c2ccc(Cl)cc2C1c1ccccc1 (stereo not drawn)

SMILES	melting point [°C]
COc1ccc(CC(C)NCC(O)c2cccc(Cl)c2F)cc1 (stereo not drawn)	95 to 101
C[C@@H]1C(=O)N(c2ccc(C#N)c(C(F)(F)F)c2)[C@@H](C)[C@H]1O	82 to 85
CC(C)(C)N1Cc2ccccc2P1(=O)c1ccccc1 (stereo not drawn)	89 to 91
NC(=O)c1ncn2c1CN=C(c1ccccc1Br)c1cc(F)ccc1-2	298 to 299
CCCC(C(C)C)C(CN)CC(=O)O (stereo not drawn)	160 to 170
C#CCNC(=O)c1ncn2c1[C@@H]1CCN1C(=O)c1ccccc1-2	214 to 215
O=S(=O)(Br)c1ccc(Br)s1	48 to 50
